In ChEMBL document CHEMBL4680215, “Substituted 1-methyl-4-phenylpyrrolidin-2-ones - Fragment-based design of N-methylpyrrolidone-derived bromodomain inhibitors” (Eur J Med Chem, 2020):

Each compound was assayed against Bromodomain-containing protein 4 (Homo sapiens, UniProt O60885) (assay: Inhibition of GST-tagged BRD4-BD1 (49 to 170 residues) (unknown origin) using Histone H4 peptide as substrate incubated for 1.5 hrs by FRET assay).

SMILES	IC50 [µM]
CCN(CC)S(=O)(=O)c1ccc([C@H]2CC(=O)N(C)C2)c(-c2ccc(OC)c(OC)c2)c1	14.1
CCN(CC)S(=O)(=O)c1ccc(C2CC(=O)N(C)C2)c(-c2csc3ccccc23)c1 (stereo not given)	2670
CN1CC(c2ccc(S(=O)(=O)NCCCn3ccnc3)cc2)CC1=O (stereo not given)	1390
CN1CC(c2ccc(S(=O)(=O)N3CCCCC3)cc2)CC1=O (stereo not given)	144
CCCNS(=O)(=O)c1ccc(C2CC(=O)N(C)C2)cc1 (stereo not given)	147
CCN(CC)S(=O)(=O)c1ccc(C2CC(=O)N(C)C2)c(-c2ccc(OC)c(OC)c2)c1 (stereo not given)	51.6
CC(C)NS(=O)(=O)c1ccc(C2CC(=O)N(C)C2)cc1 (stereo not given)	134
CN1CC(c2ccccc2Br)CC1=O (stereo not given)	321
CN1CC(c2ccc(S(=O)(=O)NC34CC5CC(CC(C5)C3)C4)cc2)CC1=O (stereo not given)	151
CCNS(=O)(=O)c1ccc(C2CC(=O)N(C)C2)cc1 (stereo not given)	250
CCN(CC)S(=O)(=O)c1ccc(C2CC(=O)N(C)C2)c(CCc2ccccc2)c1 (stereo not given)	4500
CN1CC(c2ccc(S(=O)(=O)N3CCOCC3)cc2)CC1=O (stereo not given)	276
CCN(CC)S(=O)(=O)c1ccc(C2CC(=O)N(C)C2)c(-c2ccccc2)c1 (stereo not given)	3200
CN1CC(c2ccc(S(=O)(=O)N3CCC(c4ccccc4)CC3)cc2)CC1=O (stereo not given)	473
CN1CC(c2ccc(S(=O)(=O)N3CCC[C@H](C(=O)O)C3)cc2)CC1=O (stereo not given in full)	1960
CN1CC(c2ccc(S(=O)(=O)N3CCC[C@@H](C(=O)O)C3)cc2)CC1=O (stereo not given in full)	1680
CN1CC(c2ccccc2-c2ccccc2)CC1=O (stereo not given)	575
CN1CC(c2ccc(S(=O)(=O)NCc3ccccc3)cc2)CC1=O (stereo not given)	443
CN1C[C@H](c2ccccc2)CC1=O	1430
CCN(CC)S(=O)(=O)c1ccc([C@@H]2CC(=O)N(C)C2)c(-c2ccc(OC)c(OC)c2)c1	35.2
CN1C[C@@H](c2ccccc2)CC1=O	629
CCN(CC)S(=O)(=O)c1ccc(C2CC(=O)N(C)C2)c(-c2ccc(N(C)C)cc2)c1 (stereo not given)	217
CN1CC(c2ccccc2)CC1=O (stereo not given)	1140
CN1CC(c2ccc(Br)cc2)CC1=O (stereo not given)	417
CCN(CC)S(=O)(=O)c1ccc(C2CC(=O)N(C)C2)cc1 (stereo not given)	123
CCN(CC)S(=O)(=O)c1ccc(C2CC(=O)N(C)C2)c(Br)c1 (stereo not given)	652
CN1CC(c2ccc(S(=O)(=O)N3C4CCC3CC(=O)C4)cc2)CC1=O (stereo not given)	223
CN1CC(c2ccc(-c3ccccc3)cc2)CC1=O (stereo not given)	434
CN1CC(c2ccc(S(=O)(=O)N3CCCc4ccccc43)cc2)CC1=O (stereo not given)	450
CCN(CC)S(=O)(=O)c1ccc(C2CC(=O)N(C)C2)c(CCCc2ccccc2)c1 (stereo not given)	> 5000
